Series [1] relates to Mycobacterium avium complex (MAC) 104 biofilm. Briefly: Cochleate treatment of Mycobacteria biofilm on polarized A549 cells in transwell. The series is classed as cell-based. Conditions: delivered daily to bottom well, MAC 104 biofilm on A549 cells. As to the method:
A549 alveolar epithelial cells were cultured in a transwell system. A549 cells became polarized after 6 days and integrity. Bacteria were seeded on the top (apical surface) of the cells. Seven days were allowed for biofilm formation.
Mycobacterium avium complex (MAC) 104 (10^5 bacteria) infection inoculum.
0.1 ml of the different treatments were delivered to the bottom well daily. The basolateral surface (bottom) of the cells were immersed in the tissue culture medium present in the bottom well. Three replicas per experimental group were tested in two different experiments.
Biofilm and epithelial cells were lysed and diluted and plated onto 7H10.

The conditions of series [2]: rats; cited from earlier work.
Series [3] has as its system Mycobacterium avium complex (MAC). As to the method: C57 BL/6 mice were infected with 8.3×10^6 of Mycobacterium avium complex (MAC) intranasally and the infection was allowed to establish for 7 days. Then baseline bacterial load was determined in 10 mice and treatment protocols were initiated. Mice were treated daily for 4 weeks (orally or with intraperitonal injection of free amikacin). Mice were harvested and lung and spleens were removed, homogenized and plated to determine the bacterial load. Experimental groups had 12 mice each.

Molecules are shown by their SMILES. Like-named read-outs stand apart in the source and are kept apart here.

On to `NCC[C@H](O)C(=O)N[C@@H]1C[C@H](N)[C@@H](O[C@H]2O[C@H](CN)[C@@H](O)[C@H](O)[C@H]2O)[C@H](O)[C@H]1O[C@H]1O[C@H](CO)[C@@H](O)[C@H](N)[C@H]1O` [Free amikacin, Amikacin], for which the figures for the “CFU/bacteria, 14 days” value in series [1] (20 μg/ml) and in series [1] (100 μg/ml) were 9.1 ± 0.4 × 10^5 CFU and 3.2 ± 0.3 × 10^5 CFU, respectively. The “published NOAEL for injected (intravenous) amikacin” value in series [2] is 100 mg/kg. Further, the bacterial load was 5.6 ± 0.4 × 10^3^(2)(3) CFU in series [3] (IP 100 mg/Kg, daily for 4 weeks, 100 mg/kg); 5.6×10^3 CFU in series [3] (IP 100 mg/Kg, daily for 4 weeks, listed as AMK, 100 mg/kg); 2.2 ± 0.5 × 10^5^(1) CFU in series [3] (oral, daily for 4 weeks, dose not given). The “kind of effect observed (in words)” value in series [3] (daily for 4 weeks) is recorded as “bactericidal”. The “toxicity, histopathology including kidneys (in words)” value in series [3] (mouse, in vivo) is recorded as “no toxicity was observed”.

The record behind these values is US20180153807A1, “COMPOSITIONS AND METHODS FOR TREATING MYCOBACTERIA INFECTIONS AND LUNG DISEASE” (priority 2015, published 2018).
